Experimental data reported in patent US20110071197A1, “BIS-ARYL COMPOUNDS FOR USE AS MEDICAMENTS” (priority 2008, published 2011).

What follows are compounds tested against T1, Recombinant human LTC4 synthase (Homo sapiens, UniProt Q16873) (assay: LTC4 synthase in vitro assay (HTRF detection of LTC4)). Settings: compound concentration 1 μM; HTRF method.
T1 construct: made in house; host or cells: Pichia pastoris
T1 sequence (Q16873 1-150): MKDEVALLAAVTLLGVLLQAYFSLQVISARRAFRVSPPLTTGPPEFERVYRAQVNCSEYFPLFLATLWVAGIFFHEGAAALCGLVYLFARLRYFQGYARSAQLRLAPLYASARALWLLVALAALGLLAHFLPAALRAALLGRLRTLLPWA
Assay type: biochemical
How it was run: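 Pichia-expressed recombinant human LTC4 synthase at 0.5 μg/ml total protein in PBS pH 7.4 with 5 mM GSH, preincubated 10 min at RT with inhibitor (10 μM final). LTA4 (2.5 μM final) was then added for 5 min at RT. LTC4 formed was read by HTRF.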

Compound	% inh.
O=C(Cc1ccc(Cl)cc1)Nc1ccc(Oc2ccc(NC(=O)c3ccc(C(F)(F)F)cc3)c(C(=O)O)c2)cc1 [8:7, 5-[(4-(2-(4-chlorophenyl)acetyl-amino)phenoxy)]-2-(4-trifluoro-methylbenzoylamino)benzoic acid]	64 (1 μM) %

Same assay, conditions: total concentration of title compound in the assay 10 μM; HTRF method

inhibition at 10 µM [%]	Compound	% inh. [%]
95	CCCCc1ccc(C(=O)Nc2cccc(Oc3ccc(NC(=O)c4ccccc4OC)c(C(=O)O)c3)c2)cc1 [10:3, 5-[(3-(4-(1-butyl)benzoylamino)-phenoxy)]-2-(2-methoxybenzoyl-amino)benzoic acid]	
98	CC(C)Oc1ccc(C(=O)Nc2ccc(Oc3ccc(NC(=O)c4ccccc4)c(C(=O)O)c3)cc2)cc1 [8:13, 2-benzoylamino-5-[4-(4-iso-propoxybenzoylamino)-phenoxy]benzoic acid]	
100	Cc1nc(C(F)(F)F)ccc1C(=O)Nc1ccc(Oc2ccc(NC(=O)c3ccc(OC(C)C)cc3)cc2)cc1C(=O)O [8:14, 5-[4-(4-isopropoxybenzoyl-amino)phenoxy]-2-[(2-methyl-6-trifluoromethylpyridine-3-carbonyl)amino]benzoic acid]	
	O=C(Nc1ccc([S+]([O-])c2ccc(NC(=O)c3ccc(C(F)(F)F)cc3)c(C(=O)O)c2)cc1C(=O)O)c1ccc(C(F)(F)F)cc1 [15:3, 2-(4-(trifluoromethyl)benz-amido)-5-((4-(4-(trifluoromethyl)benzamido)-3-carboxy-phenyl)sulfinyl)benzoic acid]	99
	O=C(O)Cc1cc(Oc2ccc(NC(=O)c3ccc(C(F)(F)F)cc3F)c(C(=O)O)c2)ccc1NC(=O)c1cc(F)c(Cl)cc1F [6:5, 5-[3-carboxy-methyl-4-(4-chloro-2,5-difluoro-benzoylamino)-phenoxy]-2-(2-fluoro-4-trifluoro-methylbenzoylamino)-benzoic acid]	96
	CCCCN(c1ccc(Oc2ccc(Nc3ccc(Cl)cc3)c(C(=O)O)c2)cc1)c1ccc(F)c(F)c1 [24:2]	95
	CCCCc1ccc(C(=O)Nc2ccc(Oc3ccc(NC(=O)c4ccc(F)cc4Cl)c(C(=O)O)c3)cc2C(=O)O)cc1 [2:8, 5-[3-carboxy-4-(2-chloro-4-fluorobenz-amido)-phenyloxy]-2-(4-butylbenz-amido)benzoic acid]	100
99	O=C(Nc1ccc(Oc2ccc(NC(=O)c3ccc([N+](=O)[O-])cc3)c(C(=O)O)c2)cc1C(=O)O)c1ccccc1 [5:2, 5-[3-carboxy-4-(4-nitrobenzamido)-phenyloxy]-2-benzamidobenzoic acid]	
93	O=C(Nc1ccc(Oc2ccc([N+](=O)[O-])cc2)cc1C(=O)O)c1ccc(Cl)cc1Cl [8:2, 2-(2,4-dichlorobenzamido)-5-(4-nitrophenoxy)benzoic acid]	
100	O=C(O)c1cc(Oc2ccc(S(=O)(=O)Nc3ccc(F)c(F)c3)cc2)ccc1NC(=O)c1cccc(Cl)c1Cl [25:5, 2-(2,3-Dichlorobenzoylamino)-5-[4-(3,4-difluorophenylsulfamoyl)-phenoxy]benzoic acid]	
88	CCCCc1ccc(C(=O)Nc2ccc(Oc3ccc(NC(=O)c4cc(OC)cc(OC)c4)cc3)cc2C(=O)O)cc1 [8:9, 2-(4-butylbenzoylamino)-5-[4-(3,5-dimethoxybenzoylamino)-phenoxy]benzoic acid]	
96	COc1ccc(S(=O)(=O)N(C)c2ccc(Oc3ccc(NC(=O)c4ccccc4C(F)(F)F)c(C(=O)O)c3)cc2)cc1 [11:18, 5-{4-[(4-Methoxy-benzenesulfonyl)-methyl-amino]-phenoxy}-2-(2-trifluoromethyl-benzoylamino)-benzoic acid]	
100	O=C(O)c1cc(Nc2ccc(F)c(F)c2)cc(Oc2ccc(NC(=O)c3cccc(Cl)c3)cc2)c1 [18:5, 3-[4-(3-Chloro-benzoylamino)-phenoxy]-5-(3,4-difluoro-phenylamino)-benzoic acid]	
	CC(C)(C)c1ccc(C(=O)Nc2ccc(Oc3ccc(NC(=O)c4ccc(Cl)cc4Cl)c(C(=O)O)c3)cc2)cc1 [Example 8:1, 5-(4-(4-tert-butylbenzamido)-phenoxy)-2-(2,4-dichlorobenz-amido)benzoic acid]	100
	O=C(Nc1ccc(S(=O)(=O)c2ccc(NC(=O)c3ccc(C(F)(F)F)cc3)c(C(=O)O)c2)cc1C(=O)O)c1ccc(C(F)(F)F)cc1 [16:2, 2-(4-(trifluoromethyl)benz-amido)-5-((4-(4-(trifluoro-methyl)benzamido)-3-carboxyphenyl)sulfonyl)-benzoic acid]	97
	CCCCOc1ccc(S(=O)(=O)Nc2ccc(Oc3cccc(S(=O)(=O)Nc4ccc(F)c(F)c4)c3)cc2C(=O)O)cc1 [19:2, 2-(4-Butoxy-benzenesulfonylamino)-5-[3-(3,4-difluoro-phenylsufamoyl)-phenoxy]-benzoic acid]	100
100	O=C(Nc1ccc(Sc2ccc(NS(=O)(=O)c3ccc(Cl)cc3F)c(C(=O)O)c2)cc1)c1ccc(C(F)(F)F)cc1 [Example 35:2, 2-(4-Chloro-2-fluoro-benzenesulfonylamino)-5-[4-(4-trifluoromethylbenzoylamino)-phenylsulfanyl]benzoic acid]	
98	CC(C)(C)c1ccc(C(=O)Nc2ccc(Oc3ccc(NC(=O)c4cc(Cl)cnc4Cl)c(C(=O)O)c3)cc2)cc1 [8:17, 5-[4-(4-tert-Butylbenzoyl-amino)phenoxy]-2-[(2,5-di-chloropyridine-3-carbonyl)-amino]benzoic acid]	
100	O=C(O)c1cc(Oc2ccc(S(=O)(=O)Nc3ccc(Cl)cc3)cc2)ccc1Nc1ccc(F)c(F)c1 [Example 25:7, 5-[4-(4-Chlorophenylsulfamoyl)-phenoxy]-2-(3,4-difluorophenyl-amino)benzoic acid]	
99	O=C(Nc1ccc(Oc2ccc(NC(=O)c3cccc(Cl)c3)c(C(=O)O)c2)cc1C(=O)O)c1cccc(Cl)c1 [4:4, 5-[3-carboxy-4-(3-chlorobenzamido)phenyloxy]-2-(3-chlorobenzamido)benzoic acid]	
100	O=C(O)c1cc(Oc2ccc(NS(=O)(=O)c3ccc(OC(F)(F)F)cc3)cc2)ccc1NS(=O)(=O)c1ccc(OC(F)(F)F)cc1 [Example 30:3, 2-(4-Trifluoromethoxybenzenesulfonylamino)-5-[4-(4-trifluoromethoxybenzene-sulfonylamino)phenoxy]benzoic acid]	
99	CCCCc1ccc(S(=O)(=O)N(C)c2ccc(Oc3ccc(NC(=O)c4ccc(C)cc4)c(C(=O)O)c3)cc2)cc1 [11:5, 5-{4-[(4-butyl-benzenesulfonyl)-methylamino]phenoxy}-2-(4-methylbenzoylamino)benzoic acid]	
97	COc1ccc(S(=O)(=O)N(C)c2ccc(Oc3ccc(NC(=O)c4ccc(Cl)cc4OC)c(C(=O)O)c3)cc2)cc1 [11:17, 2-(4-Chloro-2-methoxy-benzoylamino)-5-{4-[(4-methoxy-benzenesulfonyl)-methyl-amino]-phenoxy}-benzoic acid]	
	CCCCc1ccc(C(=O)Nc2ccc(Oc3ccc(N(C)C(=O)c4ccc(CCCC)cc4)cc3)cc2C(=O)O)cc1 [9:1, 5-(4-((N-methyl)-4-butylbenz-amido)phenoxy)-2-(4-butylbenz-amido)benzoic acid]	100
99	COc1cc(Cl)ccc1C(=O)Nc1ccc(Oc2ccc(NC(=O)c3ccc(C(C)(C)C)cc3)cc2)cc1C(=O)O [8:19, 5-[4-(4-tert-Butylbenzoyl-amino)phenoxy]-2-(4-chloro-2-methoxybenzoylamino)-benzoic acid]	
98	CCCCc1ccc(S(=O)(=O)Nc2ccc(Sc3ccc(NS(=O)(=O)c4ccc(CCCC)cc4)c(C(=O)O)c3)cc2)cc1 [14:3, 2-(4-butyl-benzenesulfonyl-amino)-5-[4-(4-butyl-benzen-sulfonylamino)phenyl-sulfanyl]benzoic acid]	
99	CCCCc1ccc(C(=O)Nc2ccc(Oc3ccc(NC(=O)c4ccc(CCCC)cc4)c(C(=O)O)c3)cc2C(=O)O)cc1 [4:1, 5-[3-carboxy-4-(4-butyl-benzamido)phenyloxy]-2-(4-butylbenzamido)benzoic acid]	
100	CC(C)(C)OC(=O)c1cc(Oc2cccc(C(=O)NS(=O)(=O)c3ccc(F)c(F)c3)c2)ccc1Nc1ccc(Cl)cc1 [20:6, 2-(4-Chloro-phenylamino)-5-[3-(3,4-difluoro-benzenesulfonylamino-carbonyl)-phenoxy]-benzoic acid t-butyl ester]	

Compound	inhibition at 10 µM [%]	% inh. [%]
CCCCOc1ccc(S(=O)(=O)Nc2ccc(Oc3ccc(S(=O)(=O)Nc4ccc(F)c(F)c4)cc3)cc2C(=O)O)cc1 [25:3, 2-(4-Butoxybenzenesulfonyl-amino)-5-[4-(3,4-difluorophenyl-sulfamoyl)phenoxy]benzoic acid]	100	
CCCCOc1ccc(S(=O)(=O)Nc2ccc(Oc3cccc(NCc4cccc(F)c4F)c3)cc2C(=O)O)cc1 [23:1, 2-(4-Butoxybenzenesulfonylamino)-5-[3-(2,3-difluorobenzylamino)-phenoxy]benzoic acid]	100	
CCCCOc1ccc(S(=O)(=O)Nc2ccc(Oc3cccc(CC(=O)NS(=O)(=O)c4cccc(Cl)c4F)c3)cc2C(=O)O)cc1 [26:5, 2-(4-Butoxybenzenesulfonylamino)-5-{3-[2-(3-chloro-2-fluorobenzene-sulfonylamino)-2-oxoethyl]phenoxy}-benzoic acid]	99	
CCCCOc1ccc(S(=O)(=O)Nc2ccc(Oc3ccc(NC(=O)c4ccc(OC(C)C)cc4)c(C(=O)O)c3)cc2/C=C/C(=O)O)cc1 [Example 22:4, 5-[4-(4-butoxybenzenesulfonyl-amino)-3-((E)-2-carboxyvinyl)-phenoxy]-2-(4-isopropoxy-benzoylamino)benzoic acid]	100	
